Results taken from patent US20100291086A1, “USE OF ESTROGEN AND ANDROGEN BINDING PROTEINS IN METHODS AND COMPOSITIONS FOR TREATING GYNAECOLOGICAL CANCERS” (priority 2007, published 2010).

Experiments:
LNCaP cells = assay: In vitro growth proliferation study, calcein uptake assay; type: cell-based, human; settings: nilutamide 0.1 μM, 120 hours
Procedure: The effects of the polypeptide on the growth and proliferation of the cells was then assessed. […] In addition, LNCaP cells were also cultured in the presence of the non-steroidal antiandrogen nilutamide The human prostate cancer cell line, LNCaP was obtained from American Type Tissue Collection (ATCC) and was routinely cultured in growth medium containing phenol red RPMI 1640 (Invitrogen, Auckland, New Zealand) supplemented with 10% fetal bovine serum (FBS, GIBCO) and 1% antibiotic/antimycotic mixture (Invitrogen, Auckland, New Zealand). Cells were maintained at 37° C. in 5% CO2. […] In addition as control, 6 wells were treated with the nonsteroidal antiandrogen nilutamide (0.1 μM) as well as 6 wells with 10% charcoal stripped serum, to simulate steroid free conditions. After 120 hours in culture, cells were washed once with PBS and labelled with calcein ([…], Molecular Probes, Oregon, USA) at 1 mM final concentration in PBS. Calcein positive cells were detected using a FLUOstar OPTIMA plate reader (BMG Labtech, Victoria, Australia). Experiments were performed in 6 replicates for each treatment condition. Data are presented as mean±SEM unless otherwise indicated.

[1] = women, same study; cited from earlier work
invasive breast cancer = settings: women; cited from earlier work
breast cancer = settings: adjuvant tamoxifen for about 5 years, women with cancers expressing the estrogen receptor; cited from earlier work

CC1(C)NC(=O)N(c2ccc([N+](=O)[O-])c(C(F)(F)F)c2)C1=O [nilutamide]
reduction of prostate cancer cell proliferation (LNCaP cells): 80%

O=C(c1ccc(OCCN2CCCCC2)cc1)c1c(-c2ccc(O)cc2)sc2cc(O)ccc12 [Raloxifene]
increase of risk of fatal stroke [1]: 49%
reduction of risk of invasive breast cancer (invasive breast cancer): 44%

CC/C(=C(\c1ccccc1)c1ccc(OCCN(C)C)cc1)c1ccccc1 [tamoxifen]
reduction of annual breast cancer death rate (breast cancer): 31%
